Data taken from patent publication US10792289B2 (Horizon Orphan LLC, priority 2009, dated 2020).
Like-named read-outs stand apart in the source and are kept apart here.

System: P. aeruginosa isolates
Experiment: Phase 2 study: MIC of P. aeruginosa isolates to levofloxacin
Type: cell-based
Conditions: Pseudomonas aeruginosa
Method: Efficacy was evaluated by microbiologic assessment of sputum samples, time to need for anti-pseudomonal antimicrobials, the Cystic Fibrosis Questionaire-Revised (CFQ-R), and pulmonary function tests. […] Pair-wise comparisons between all the treatment arms were conducted as secondary analyses.

C[C@H]1COc2c(N3CCN(C)CC3)c(F)cc3c(=O)c(C(=O)O)cn1c23 [Levofloxacin, levofloxacin]
6 µg/mL: MIC50 (24 h, MITT, 240 mg BID, Day 1, read-out: Highest MIC, MIC50) | MIC50 (24 h, Table 14, EE, 240 mg BID, Day 1, read-out: MIC50 (all organisms)) | MIC50 (168 h, MITT, 240 mg BID, Day 7, read-out: Highest MIC, MIC50) | MIC50 (336 h, MITT, 120 mg QD, Day 14, read-out: MIC50 (all organisms)) | MIC50 (336 h, MITT, 240 mg BID, Day 14, read-out: Highest MIC, MIC50)
10.5 µg/mL: MIC (168 h, read-out: Highest MIC to levofloxacin, mean (SD), MITT, 240 mg QD, Day 7)
13.1 µg/mL: MIC (168 h, read-out: MIC to levofloxacin (all organisms), mean (SD), Table 14, EE, 240 mg BID, Day 7)
37 µg/mL: MIC90 (336 h, EE, 120 mg QD, Day 14, read-out: MIC90 (all organisms))
2 µg/mL: MIC50 (168 h, EE, 240 mg QD, Day 7, read-out: MIC50 (all organisms))
8.6 µg/mL: MIC (168 h, read-out: MIC to levofloxacin (all organisms), mean (SD), MITT, 240 mg BID, Day 7)
11.9 µg/mL: MIC (168 h, read-out: MIC to levofloxacin (all organisms), mean (SD), Table 14, EE, combined 240 mg QD and BID, Day 7)
10.9 µg/mL: MIC (168 h, read-out: MIC to levofloxacin (all organisms), mean (SD), Table 14, EE, 240 mg QD, Day 7)
11.8 µg/mL: MIC (168 h, read-out: Highest MIC to levofloxacin, mean (SD), MITT, combined 240 mg QD and BID, Day 7)
8 µg/mL: MIC50 (24 h, MITT, 120 mg QD, Day 1, read-out: Highest MIC, MIC50) | MIC50 (24 h, Table 14, EE, 120 mg QD, Day 1, read-out: MIC50 (all organisms)) | MIC50 (168 h, MITT, 120 mg QD, Day 7, read-out: Highest MIC, MIC50) | MIC50 (168 h, Table 14, EE, 120 mg QD, Day 7, read-out: MIC50 (all organisms)) | MIC50 (336 h, MITT, 120 mg QD, Day 14, read-out: Highest MIC, MIC50) | MIC50 (336 h, MITT, 240 mg QD, Day 14, read-out: Highest MIC, MIC50) | MIC50 (336 h, MITT, combined 240 mg QD and BID, Day 14, read-out: Highest MIC, MIC50)
7.8 µg/mL: MIC (168 h, read-out: MIC to levofloxacin (all organisms), mean (SD), EE, combined 240 mg QD and BID, Day 7)
15.2 µg/mL: MIC (168 h, read-out: Highest MIC to levofloxacin, mean (SD), MITT, 120 mg QD, Day 7)
32 µg/mL: MIC90 (24 h, EE, 120 mg QD, Day 1, read-out: MIC90 (all organisms)) | MIC90 (24 h, MITT, 120 mg QD, Day 1, read-out: Highest MIC, MIC90) | MIC90 (24 h, MITT, 120 mg QD, Day 1, read-out: MIC90 (all organisms)) | MIC90 (24 h, MITT, 240 mg BID, Day 1, read-out: Highest MIC, MIC90) | MIC90 (24 h, MITT, 240 mg QD, Day 1, read-out: Highest MIC, MIC90) | MIC90 (24 h, MITT, combined 240 mg QD and BID, Day 1, read-out: Highest MIC, MIC90) | MIC90 (24 h, Table 14, EE, 120 mg QD, Day 1, read-out: MIC90 (all organisms)) | MIC90 (24 h, Table 14, EE, 240 mg BID, Day 1, read-out: MIC90 (all organisms)) | MIC90 (24 h, Table 14, EE, 240 mg QD, Day 1, read-out: MIC90 (all organisms)) | MIC90 (24 h, Table 14, EE, combined 240 mg QD and BID, Day 1, read-out: MIC90 (all organisms)) | MIC90 (168 h, MITT, 120 mg QD, Day 7, read-out: Highest MIC, MIC90) | MIC90 (168 h, MITT, 240 mg BID, Day 7, read-out: Highest MIC, MIC90) | MIC90 (168 h, Table 14, EE, 120 mg QD, Day 7, read-out: MIC90 (all organisms)) | MIC90 (168 h, Table 14, EE, 240 mg BID, Day 7, read-out: MIC90 (all organisms)) | MIC90 (168 h, Table 14, EE, combined 240 mg QD and BID, Day 7, read-out: MIC90 (all organisms)) | MIC90 (336 h, MITT, 120 mg QD, Day 14, read-out: Highest MIC, MIC90) | MIC90 (336 h, MITT, 120 mg QD, Day 14, read-out: MIC90 (all organisms)) | MIC90 (336 h, MITT, 240 mg BID, Day 14, read-out: Highest MIC, MIC90) | MIC90 (336 h, MITT, combined 240 mg QD and BID, Day 14, read-out: Highest MIC, MIC90)
9.6 µg/mL: MIC (168 h, read-out: MIC to levofloxacin (all organisms), mean (SD), MITT, 120 mg QD, Day 7)
7.6 µg/mL: MIC (168 h, read-out: MIC to levofloxacin (all organisms), mean (SD), MITT, combined 240 mg QD and BID, Day 7)
15.7 µg/mL: MIC (168 h, read-out: MIC to levofloxacin (all organisms), mean (SD), Table 14, EE, 120 mg QD, Day 7)
16 µg/mL: MIC90 (24 h, EE, 240 mg BID, Day 1, read-out: MIC90 (all organisms)) | MIC90 (24 h, EE, 240 mg QD, Day 1, read-out: MIC90 (all organisms)) | MIC90 (24 h, EE, combined 240 mg QD and BID, Day 1, read-out: MIC90 (all organisms)) | MIC90 (24 h, MITT, 240 mg BID, Day 1, read-out: MIC90 (all organisms)) | MIC90 (24 h, MITT, 240 mg QD, Day 1, read-out: MIC90 (all organisms)) | MIC90 (24 h, MITT, combined 240 mg QD and BID, Day 1, read-out: MIC90 (all organisms)) | MIC90 (168 h, EE, 120 mg QD, Day 7, read-out: MIC90 (all organisms)) | MIC90 (168 h, EE, 240 mg BID, Day 7, read-out: MIC90 (all organisms)) | MIC90 (168 h, EE, 240 mg QD, Day 7, read-out: MIC90 (all organisms)) | MIC90 (168 h, EE, combined 240 mg QD and BID, Day 7, read-out: MIC90 (all organisms)) | MIC90 (168 h, MITT, 120 mg QD, Day 7, read-out: MIC90 (all organisms)) | MIC90 (168 h, MITT, 240 mg BID, Day 7, read-out: MIC90 (all organisms)) | MIC90 (168 h, MITT, 240 mg QD, Day 7, read-out: Highest MIC, MIC90) | MIC90 (168 h, MITT, 240 mg QD, Day 7, read-out: MIC90 (all organisms)) | MIC90 (168 h, MITT, combined 240 mg QD and BID, Day 7, read-out: Highest MIC, MIC90) | MIC90 (168 h, MITT, combined 240 mg QD and BID, Day 7, read-out: MIC90 (all organisms)) | MIC90 (168 h, Table 14, EE, 240 mg QD, Day 7, read-out: MIC90 (all organisms)) | MIC90 (336 h, EE, 240 mg BID, Day 14, read-out: MIC90 (all organisms)) | MIC90 (336 h, EE, 240 mg QD, Day 14, read-out: MIC90 (all organisms)) | MIC90 (336 h, EE, combined 240 mg QD and BID, Day 14, read-out: MIC90 (all organisms)) | MIC90 (336 h, MITT, 240 mg BID, Day 14, read-out: MIC90 (all organisms)) | MIC90 (336 h, MITT, 240 mg QD, Day 14, read-out: Highest MIC, MIC90) | MIC90 (336 h, MITT, 240 mg QD, Day 14, read-out: MIC90 (all organisms))
6.8 µg/mL: MIC (168 h, read-out: MIC to levofloxacin (all organisms), mean (SD), EE, 240 mg QD, Day 7)
13 µg/mL: MIC (168 h, read-out: Highest MIC to levofloxacin, mean (SD), MITT, 240 mg BID, Day 7)
8.8 µg/mL: MIC (168 h, read-out: MIC to levofloxacin (all organisms), mean (SD), EE, 240 mg BID, Day 7)
9.9 µg/mL: MIC (168 h, read-out: MIC to levofloxacin (all organisms), mean (SD), EE, 120 mg QD, Day 7)
4 µg/mL: MIC50 (24 h, EE, 120 mg QD, Day 1, read-out: MIC50 (all organisms)) | MIC50 (24 h, EE, 240 mg BID, Day 1, read-out: MIC50 (all organisms)) | MIC50 (24 h, EE, 240 mg QD, Day 1, read-out: MIC50 (all organisms)) | MIC50 (24 h, EE, combined 240 mg QD and BID, Day 1, read-out: MIC50 (all organisms)) | MIC50 (24 h, MITT, 120 mg QD, Day 1, read-out: MIC50 (all organisms)) | MIC50 (24 h, MITT, 240 mg BID, Day 1, read-out: MIC50 (all organisms)) | MIC50 (24 h, MITT, 240 mg QD, Day 1, read-out: Highest MIC, MIC50) | MIC50 (24 h, MITT, 240 mg QD, Day 1, read-out: MIC50 (all organisms)) | MIC50 (24 h, MITT, combined 240 mg QD and BID, Day 1, read-out: Highest MIC, MIC50) | MIC50 (24 h, MITT, combined 240 mg QD and BID, Day 1, read-out: MIC50 (all organisms)) | MIC50 (24 h, Table 14, EE, 240 mg QD, Day 1, read-out: MIC50 (all organisms)) | MIC50 (24 h, Table 14, EE, combined 240 mg QD and BID, Day 1, read-out: MIC50 (all organisms)) | MIC50 (168 h, EE, 120 mg QD, Day 7, read-out: MIC50 (all organisms)) | MIC50 (168 h, EE, 240 mg BID, Day 7, read-out: MIC50 (all organisms)) | MIC50 (168 h, EE, combined 240 mg QD and BID, Day 7, read-out: MIC50 (all organisms)) | MIC50 (168 h, MITT, 120 mg QD, Day 7, read-out: MIC50 (all organisms)) | MIC50 (168 h, MITT, 240 mg BID, Day 7, read-out: MIC50 (all organisms)) | MIC50 (168 h, MITT, 240 mg QD, Day 7, read-out: Highest MIC, MIC50) | MIC50 (168 h, MITT, 240 mg QD, Day 7, read-out: MIC50 (all organisms)) | MIC50 (168 h, MITT, combined 240 mg QD and BID, Day 7, read-out: Highest MIC, MIC50) | MIC50 (168 h, MITT, combined 240 mg QD and BID, Day 7, read-out: MIC50 (all organisms)) | MIC50 (168 h, Table 14, EE, 240 mg BID, Day 7, read-out: MIC50 (all organisms)) | MIC50 (168 h, Table 14, EE, 240 mg QD, Day 7, read-out: MIC50 (all organisms)) | MIC50 (336 h, EE, 120 mg QD, Day 14, read-out: MIC50 (all organisms)) | MIC50 (336 h, EE, 240 mg BID, Day 14, read-out: MIC50 (all organisms)) | MIC50 (336 h, EE, 240 mg QD, Day 14, read-out: MIC50 (all organisms)) | MIC50 (336 h, EE, combined 240 mg QD and BID, Day 14, read-out: MIC50 (all organisms)) | MIC50 (336 h, MITT, 240 mg BID, Day 14, read-out: MIC50 (all organisms)) | MIC50 (336 h, MITT, 240 mg QD, Day 14, read-out: MIC50 (all organisms))
6.7 µg/mL: MIC (168 h, read-out: MIC to levofloxacin (all organisms), mean (SD), MITT, 240 mg QD, Day 7)
